Test systems include SR leukemia; HOP-62 NSCLC; MALME-3M melanoma; NCI-H460 lung; KM12 colon; SK-MEL-5 melanoma; UACC-257 melanoma; HT29 colon; 786-0 renal; RPMI-8226 leukemia; HS 578T breast.
Common to all, as to test: inhibition of tumour cell growth, NCI panel, 48 h

Molecules are shown by their SMILES.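 96-well plates; 48 h exposure; 5 concentrations. Endpoints by linear interpolation between flanking doses. Not reached: highest tested concentration assigned. TGI is the concentration that stops growth completely.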

Turning to `CC(Cl)(CCC(Cl)C(C)(C)Cl)C(=O)CBr` (stereo unspecified), the TGI in the experiment with SR leukemia was 6.54 µM; with HOP-62 NSCLC it was 32.5 µM; in the experiment with MALME-3M melanoma, 24.8 µM; with NCI-H460 lung, 32.3 µM; in the experiment with KM12 colon it was 29.6 µM; in the experiment on SK-MEL-5 melanoma, 21 µM. Moreover, the TGI with UACC-257 melanoma is 25.5 µM; in the experiment with HT29 colon, 32.3 µM; in the experiment with 786-0 renal, 20.7 µM; in the experiment with RPMI-8226 leukemia, 7.99 µM; in the experiment with HS 578T breast it was 58.1 µM.

The values above are taken from PubChem BioAssay (NCI).
